# Paper PMC8843100, “Development of newly synthesised quinazolinone-based CDK2 inhibitors with potent efficacy against melanoma” (Journal of Enzyme Inhibition and Medicinal Chemistry, 2022)
# Legend:
# Experiment in all cases: NCI-60 single dose screen, sulforhodamine B
# Type in all cases: cell-based, human
# MDA-MB-231/ATCC = details: Breast cancer MDA-MB-231/ATCC; single dose 10^−5 M
# Method: (§1) In this research, all of the newly synthesised quinazolinones were subjected to in vitro anticancer screening by the National Cancer Institute (USA) against 60 different human cell lines including leukaemia, non-small cell lung cancer, colon cancer, CNS cancer, melanoma, ovarian cancer, renal cancer, prostate cancer, and breast cancer. The tested compounds were evaluated at a single dose (10^−5 M). […] Regarding the benzenesulfonamide counterparts, the introduction of an electron-withdrawing group on the benzenesulfonamide moiety increased the inhibitory activity on the glioblastoma cell line SNB-75 as depicted by the chloro derivative 5c (GI% = 63.09) which was higher than that of the unsubstituted derivative 5a (GI% = 40.06) and the methyl derivative 5b (GI% = 33.03).
# (§2) 1. Cytotoxicity screening against a panel of 60 human tumor cell lines
# (§3) All the compounds were selected for NCI-60 Human Tumor Cell Lines Screen by the Developmental Therapeutics Program (DTP) at the National Cancer Institute (NCI), Maryland, USA. The operation of this screen utilizes 60 different human tumor cell lines, representing leukemia, non-small-cell lung cancer, colon cancer, CNS cancer, melanoma, ovarian cancer, renal cancer, prostate cancer and breas t cancer.
# (§4) The compounds were supplied as dry powder and a single concentration is tested in all 60 cell lines at a single dose of 10 µM solution in dimethyl sulfoxide (DMSO) using Sulforhodamine B assay. Briefly, cells are seeded in 96 well plates at an appropriate density and incubated for 1 day. After 1 day, some of the plates are processed to determine the density time zero. To the remaining plates, compounds are added at 10 µM concentration. Plates are incubated a further 2 days, then fixed and staine d with sulphorhodamine B. Growth inhibition is calculated relative to cells without drug treatment and the time zero control. The use of a time zero control allows the determination of cell kill as well as net growth inhibition. […]
# BT-549 = details: Breast cancer BT-549; single dose 10^−5 M
# Method: as §1, §2, §3, §4
# HCC-2998 = details: Colon cancer HCC-2998; single dose 10^−5 M
# Method: as §1, §2, §3, §4
# UACC-62 = details: Melanoma UACC-62; single dose 10^−5 M
# Method: as §1, §2, §3, §4
# SF-295 = details: CNS cancer SF-295; single dose 10^−5 M
# Method: as §1, §2, §3, §4
# RPMI-8226 = details: Leukaemia RPMI-8226; single dose 10^−5 M
# Method: as §1, §2, §3, §4
# MALME-3M = details: Melanoma MALME-3M; single dose 10^−5 M
# Method: as §1, §2, §3, §4
# SNB-19 = details: CNS cancer SNB-19; single dose 10^−5 M
# Method: as §1, §2, §3, §4
# HCT-116 = details: Colon cancer HCT-116; single dose 10^−5 M
# Method: as §1, §2, §3, §4
# HS 578T = details: Breast cancer HS 578T; single dose 10^−5 M
# Method: as §1, §2, §3, §4
# NCI/ADR-RES = details: Ovarian cancer NCI/ADR-RES; single dose 10^−5 M
# Method: as §1, §2, §3, §4
# NCI-H522 = details: Non-small cell lung cancer NCI-H522; single dose 10^−5 M
# Method: as §1, §2, §3, §4
# MOLT-4 = details: Leukaemia MOLT-4; single dose 10^−5 M
# Method: as §1, §2, §3, §4
# NCI-H460 = details: Non-small cell lung cancer NCI-H460; single dose 10^−5 M
# Method: as §1, §2, §3, §4
# MDA-MB-435 = details: Melanoma MDA-MB-435; single dose 10^−5 M
# Method: as §1, §2, §3, §4
# U251 = details: CNS cancer U251; single dose 10^−5 M
# Method: as §1, §2, §3, §4
# HT29 = details: Colon cancer HT29; single dose 10^−5 M
# Method: as §1, §2, §3, §4
# T-47D = details: Breast cancer T-47D; single dose 10^−5 M
# Method: as §1, §2, §3, §4
# HOP-92 = details: Non-small cell lung cancer HOP-92; single dose 10^−5 M
# Method: as §1, §2, §3, §4
# SN12C = details: Renal cancer SN12C; single dose 10^−5 M
# Method: as §1, §2, §3, §4
# HOP-62 = details: Non-small cell lung cancer HOP-62; single dose 10^−5 M
# Method: as §1, §2, §3, §4
# OVCAR-3 = details: Ovarian cancer OVCAR-3; single dose 10^−5 M
# Method: as §1, §2, §3, §4
# SR = details: Leukaemia SR; single dose 10^−5 M
# Method: as §1, §2, §3, §4
# RXF 393 = details: Renal cancer RXF 393; single dose 10^−5 M
# Method: as §1, §2, §3, §4
# NCI-H322M = details: Non-small cell lung cancer NCI-H322M; single dose 10^−5 M
# Method: as §1, §2, §3, §4
# PC-3 = details: Prostate cancer PC-3; single dose 10^−5 M
# Method: as §1, §2, §3, §4
# SF-268 = details: CNS cancer SF-268; single dose 10^−5 M
# Method: as §1, §2, §3, §4
# HCT-15 = details: Colon cancer HCT-15; single dose 10^−5 M
# Method: as §1, §2, §3, §4
# SNB-75 = details: CNS cancer SNB-75; single dose 10^−5 M
# Method: as §1, §2, §3, §4
# OVCAR-8 = details: Ovarian cancer OVCAR-8; single dose 10^−5 M
# Method: as §1, §2, §3, §4
# KM12 = details: Colon cancer KM12; single dose 10^−5 M
# Method: as §1, §2, §3, §4
Compound,GI% at 10^−5 M (MDA-MB-231/ATCC),GI% at 10^−5 M (BT-549),GI% at 10^−5 M (HCC-2998),GI% at 10^−5 M (UACC-62),GI% at 10^−5 M (SF-295),GI% at 10^−5 M (RPMI-8226),GI% at 10^−5 M (MALME-3M),GI% at 10^−5 M (SNB-19),GI% at 10^−5 M (HCT-116),GI% at 10^−5 M (HS 578T),GI% at 10^−5 M (NCI/ADR-RES),GI% at 10^−5 M (NCI-H522),GI% at 10^−5 M (MOLT-4),GI% at 10^−5 M (NCI-H460),GI% at 10^−5 M (MDA-MB-435),GI% at 10^−5 M (U251),GI% at 10^−5 M (HT29),GI% at 10^−5 M (T-47D),GI% at 10^−5 M (SN12C),GI% at 10^−5 M (HOP-62),also measured
"O=C(CNn1c(COc2ccccc2)nc2ccccc2c1=O)Nc1ccc(Cl)cc1 [Compound 4c, N-(4-chlorophenyl)-2-((4-oxo-2-(phenoxymethyl)quinazolin-3(4H)-yl)amino)acetamide]",– (– means GI < 10%),12.12%,– (– means GI < 10%),14.58%,– (– means GI < 10%),– (– means GI < 10%),12.02%,– (– means GI < 10%),– (– means GI < 10%),19.01%,10.99%,24.21%,15.9%,– (– means GI < 10%),– (– means GI < 10%),– (– means GI < 10%),– (– means GI < 10%),29.33%,19.15%,12.12%,GI% at 10^−5 M (HOP-92): 29.33%; GI% at 10^−5 M (OVCAR-3): – (– means GI < 10%); GI% at 10^−5 M (SR): 10.05%; GI% at 10^−5 M (RXF 393): – (– means GI < 10%); GI% at 10^−5 M (NCI-H322M): – (– means GI < 10%); GI% at 10^−5 M (PC-3): 15.9%; GI% at 10^−5 M (SF-268): – (– means GI < 10%); GI% at 10^−5 M (HCT-15): – (– means GI < 10%); GI% at 10^−5 M (SNB-75): – (– means GI < 10%); GI% at 10^−5 M (OVCAR-8): – (– means GI < 10%); GI% at 10^−5 M (KM12): – (– means GI < 10%)
"O=c1c2ccccc2nc(COc2ccccc2)n1NS(=O)(=O)c1ccc(Cl)cc1 [Compound 5c, 4-chloro-N-(4-oxo-2-(phenoxymethyl)quinazolin-3(4H)-yl)benzenesulfonamide]",32.6%,– (– means GI < 10%),22.36%,23.06%,– (– means GI < 10%),– (– means GI < 10%),17.90%,20.21%,16.40%,24.96%,26.99%,30.63%,30.51%,– (– means GI < 10%),94.53%,12.24%,20.01%,25.18%,23.41%,25.00%,GI% at 10^−5 M (OVCAR-3): – (– means GI < 10%); GI% at 10^−5 M (SR): 42.42%; GI% at 10^−5 M (RXF 393): – (– means GI < 10%); GI% at 10^−5 M (NCI-H322M): 17.13%; GI% at 10^−5 M (PC-3): 17.26%; GI% at 10^−5 M (SF-268): 11.40%; GI% at 10^−5 M (HCT-15): 45.60%; GI% at 10^−5 M (SNB-75): 63.09%; GI% at 10^−5 M (OVCAR-8): – (– means GI < 10%); GI% at 10^−5 M (KM12): 44.77%
